This is an account of results in patent publication US20090202571A1, “Bioreductively-activated prodrugs” (HOPNIC LABORATORY CO., LTD., priority 2004, published 2009).

One data set relates to A549 cells. Kind of data set: Cellular cytotoxicity (Celltiter 96 Aqueous One Solution, MTS). It counts as cell-based. The note with it: 61 h incubation period as printed, MTS absorbance 490 nm. The text has this:
The cytotoxic or cytostatic properties of compounds of formula (1) and corresponding etoposide compounds can be assessed for example, by use, for example, of this assay. The Celltiter 96® Aqueous One Solution Cell Proliferation Assay kit (Promega Corporation, USA) which is a colorimetric method for determining the number of viable cells in proliferation or cytotoxicity assays was used. In this assay the MTS tetrazolium compound (Owen's Reagent) is bioreduced by viable cells into a coloured formazan product which is soluble in tissue culture medium and can be measured by recording absorbance at 490 nm with a 96 well plate reader. A549 cells were seeded in Eagles Minimum Essential Medium supplemented with 10% foetal calf serum and non-essential amino acids at 10^3 cell per well on a 96 well plate and allowed to attach for 24 h. Compounds were dissolved in DMSO and diluted with cell culture medium before addition. […] The MTS reagent was added to each well, left for 4 h, then the absorbance measured at 490 nm with a 96 well plate reader.

For data set [1] the following is noted: 5 μmol dm^−3 prodrug, NADPH, pH 7.4, 37° C.
Experimental: Freshly-excised mouse liver (approximately 1 g) was homogenised in 15 ml of ice-cold 50 mmol dm^−3 potassium phosphate buffer at pH 7.4. The homogenates were centrifuged at 1000 RPM for 10 min and the supernatants stored on ice. The metabolism of 5 µmol dm^−3 prodrug in air was performed with 0.5 ml liver homogenate (˜2 mg of protein by Bradford assay) with 100 µmol dm^−3 NADPH in 50 mmol dm^−3 potassium phosphate buffer at pH 7.4 incubated at 37° C. Samples (60 µl) were taken at regular intervals and added to an equivalent volume of acetonitrile, then mixed and centrifuged at 14, 300 RPM for 2 min prior to product analysis by HPLC.
For the next data set, the target named is T1, human P450 reductase (Homo sapiens, UniProt P16435).
T1 construct: purchased Gentest or Cypex P244 (Gentest) or Cyp004 (Cypex)
T1 sequence (P16435 1-677): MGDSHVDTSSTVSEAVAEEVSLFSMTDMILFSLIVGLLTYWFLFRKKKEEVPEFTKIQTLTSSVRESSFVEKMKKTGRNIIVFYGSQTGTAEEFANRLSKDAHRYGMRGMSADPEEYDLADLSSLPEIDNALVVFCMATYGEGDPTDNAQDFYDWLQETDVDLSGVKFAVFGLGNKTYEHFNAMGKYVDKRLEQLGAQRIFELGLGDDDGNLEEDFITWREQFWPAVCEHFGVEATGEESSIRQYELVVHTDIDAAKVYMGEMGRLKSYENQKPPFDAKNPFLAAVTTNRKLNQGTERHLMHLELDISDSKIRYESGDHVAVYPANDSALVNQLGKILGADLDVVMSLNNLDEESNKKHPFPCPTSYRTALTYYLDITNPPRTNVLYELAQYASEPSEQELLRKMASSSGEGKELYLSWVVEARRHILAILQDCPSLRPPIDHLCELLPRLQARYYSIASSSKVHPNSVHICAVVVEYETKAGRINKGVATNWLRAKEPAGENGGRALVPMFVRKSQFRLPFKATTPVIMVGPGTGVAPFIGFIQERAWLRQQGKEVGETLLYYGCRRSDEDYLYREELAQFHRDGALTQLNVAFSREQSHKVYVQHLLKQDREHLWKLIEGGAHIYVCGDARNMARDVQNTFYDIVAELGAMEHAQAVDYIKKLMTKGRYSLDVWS
Kind of data set: Drug release by human cytochrome P450 reductase. Format: biochemical. The settings on record: NADPH, pH 7.4, 37° C. The protocol:
Cytochrome p450 reductase is widely expressed in human tumours as well as in a range of normal tissues and is one of a number of enzymes that can catalyse bioreduction. […] For experiments under nitrogen the mixture was degassed with nitrogen for 20 minutes prior to compound addition and overgassed with nitrogen during the incubation.

Data set [2] in a line: Metabolism in tumour homogenates. Format: in vitro ADME. The note with it: 5 μmol dm^−3 prodrug, NADPH, pH 7.4, 37° C. The method, then:
Useful bioreductive prodrugs can be shown to release the active drug selectively under conditions of low oxygen in the presence of tumour homogenate in this assay. Freshly-excised CaNT tumours (approximately 0.5 to 1 g) were homogenised in 15 ml of ice-cold 50 mmol din^−3 potassium phosphate buffer at pH 7.4.

By IC50 is commonly meant the concentration that inhibits the measured activity by half. High values mean weaker potency, low ones greater potency. `COc1cc([C@@H]2c3cc4c(cc3[C@@H](O[C@@H]3O[C@@H]5CO[C@@H](C)O[C@H]5[C@H](O)[C@H]3O)[C@H]3COC(=O)[C@H]23)OCO4)cc(OC)c1O` [etoposide, reference compound] yielded an IC50 with A549 cells (Homo sapiens) of 7.5 µM.
With “9-[(4,6-O-Ethylidene-β-D-glucopyranosyl)oxy]-5,8,8a,9-tetrahydro-5-(4-(5-nitrothien-2-yl)methoxy)-3,5-dimethoxyphenyl)furo[3′,4′:6,7]naphtha[2,3-d]-1,3-dioxol-6(5aH)-one [Example 2]”, in data set [1] (Anoxic (nitrogen)), the “Rate of drug release (pmol/min/mg protein) Anoxic” value worked out at 388 pmol/min/mg protein. In addition, in data set [1] (Oxic (air)), the “Rate of drug release (pmol/min/mg protein) Oxic” value worked out at 7 pmol/min/mg protein.
For the molecule “9-[(4,6-O-Ethylidene-β-D-glucopyranosyl)oxy]-5,8,8a,9-tetrahydro-5-(4-(1-(5-nitrothien-2-yl)ethoxy)-3,5-dimethoxyphenyl)furo[3′,4′:6,7]naphtha[2,3-d]-1,3-dioxol-6(5aH)-one [Example 1]”, the drug production result at human P450 reductase (under air) is reported as “no drug production could be detected”. Further, the “rate of etoposide production” value is 0.83 nmol min^−1 mg protein^−1 at human P450 reductase (under anoxia (nitrogen)) and 17 μmol/min/mg protein in data set [2] (under nitrogen). For the same molecule, the etoposide production entry in data set [2] (under air) is given as “no etoposide production was detected”. The same molecule gave an IC50 in the data set on A549 cells of over 20 µM.
